# Experimental data reported in ChEMBL document CHEMBL3351602 (Eur J Med Chem, 2014).
# Activity calls are given as the source filed them. The calls are words filed in the database; no cut-off is given here.
# Tested on: MDA-MB-231
# Assay: Cytotoxicity against human MDA-MB-231 cells assessed as reduction in cell viability after 48 hrs by MTT assay
# Type: functional, cell-based
# Conditions: MDA-MB-231, 48 h
row,SMILES,IC50
1,NCC/C(=C(\c1ccccc1)c1ccc(OCCO)cc1)c1ccccc1,25 µM
2,OCCOc1ccc(/C(=C(/CCCl)c2ccccc2)c2ccccc2)cc1 [OSPEMIFENE],> 100 µM
3,O=C(NCC/C(=C(\c1ccccc1)c1ccc(OCCO)cc1)c1ccccc1)Oc1ccccc1,> 100 µM
4,[N-]=[N+]=NCC/C(=C(\c1ccccc1)c1ccc(OCCO)cc1)c1ccccc1,> 100 µM
5,NCCOc1ccc(/C(=C(/CCN)c2ccccc2)c2ccccc2)cc1,17.1 µM

# Tested on: MCF7
# Assay: Cytotoxicity against human MCF7 cells assessed as reduction in cell viability after 48 hrs by MTT assay
# Type: functional, cell-based
# Conditions: MCF7, 48 h
row,SMILES,IC50
1,NCC/C(=C(\c1ccccc1)c1ccc(OCCO)cc1)c1ccccc1,15.9 µM
2,OCCOc1ccc(/C(=C(/CCCl)c2ccccc2)c2ccccc2)cc1 [OSPEMIFENE],> 100 µM
3,O=C(NCC/C(=C(\c1ccccc1)c1ccc(OCCO)cc1)c1ccccc1)Oc1ccccc1,76 µM
4,[N-]=[N+]=NCC/C(=C(\c1ccccc1)c1ccc(OCCO)cc1)c1ccccc1,> 100 µM
5,NCCOc1ccc(/C(=C(/CCN)c2ccccc2)c2ccccc2)cc1,23.6 µM

# Tested on: MDA-MB-231
# Assay: Cytotoxicity against human MDA-MB-231 cells assessed as reduction in cell viability after 96 hrs by MTT assay
# Type: functional, cell-based
# Conditions: MDA-MB-231, 96 h
row,SMILES,IC50
1,NCC/C(=C(\c1ccccc1)c1ccc(OCCO)cc1)c1ccccc1,14.5 µM
2,OCCOc1ccc(/C(=C(/CCCl)c2ccccc2)c2ccccc2)cc1 [OSPEMIFENE],> 100 µM
3,O=C(NCC/C(=C(\c1ccccc1)c1ccc(OCCO)cc1)c1ccccc1)Oc1ccccc1,62.3 µM
4,[N-]=[N+]=NCC/C(=C(\c1ccccc1)c1ccc(OCCO)cc1)c1ccccc1,> 100 µM
5,NCCOc1ccc(/C(=C(/CCN)c2ccccc2)c2ccccc2)cc1,13.4 µM

# Tested on: MCF7
# Assay: Cytotoxicity against human MCF7 cells assessed as reduction in cell viability after 96 hrs by MTT assay
# Type: functional, cell-based
# Conditions: MCF7, 96 h
row,SMILES,IC50
1,NCC/C(=C(\c1ccccc1)c1ccc(OCCO)cc1)c1ccccc1,12.4 µM
2,OCCOc1ccc(/C(=C(/CCCl)c2ccccc2)c2ccccc2)cc1 [OSPEMIFENE],55 µM
3,O=C(NCC/C(=C(\c1ccccc1)c1ccc(OCCO)cc1)c1ccccc1)Oc1ccccc1,50 µM
4,[N-]=[N+]=NCC/C(=C(\c1ccccc1)c1ccc(OCCO)cc1)c1ccccc1,> 100 µM
5,NCCOc1ccc(/C(=C(/CCN)c2ccccc2)c2ccccc2)cc1,11.2 µM

# Tested on: MEF
# Assay: Cytotoxicity against MEFs assessed as reduction in cell viability up to 100 uM after 48 to 96 hrs by MTT assay
# Type: cell-based
# Conditions: mouse
row,SMILES,Activity
1,NCC/C(=C(\c1ccccc1)c1ccc(OCCO)cc1)c1ccccc1,Non-toxic
2,OCCOc1ccc(/C(=C(/CCCl)c2ccccc2)c2ccccc2)cc1 [OSPEMIFENE],Non-toxic
3,CC/C(=C(\c1ccccc1)c1ccc(OCCN(C)C)cc1)c1ccccc1 [TAMOXIFEN],Non-toxic
4,NCCOc1ccc(/C(=C(/CCN)c2ccccc2)c2ccccc2)cc1,Non-toxic

# Tested on: MDA-MB-231
# Assay: Cytotoxicity against human MDA-MB-231 cells assessed as induction of cell death at 0.5 to 25 uM after 48 hrs by MTT assay
# Type: functional, cell-based
# Conditions: not given
row,SMILES,Activity
1,[N-]=[N+]=NCCOc1ccc(/C(=C(/CCCl)c2ccccc2)c2ccccc2)cc1,inactive
2,[N-]=[N+]=NCCOc1ccc(/C(=C(/CCN=[N+]=[N-])c2ccccc2)c2ccccc2)cc1,inactive
3,CS(=O)(=O)OCCOc1ccc(/C(=C(/CCCl)c2ccccc2)c2ccccc2)cc1,inactive
4,NCC/C(=C(\c1ccccc1)c1ccc(OCCO)cc1)c1ccccc1,Active
5,O=C(NCC/C(=C(\c1ccccc1)c1ccc(OCCO)cc1)c1ccccc1)Oc1ccccc1,Active
6,NCCOc1ccc(/C(=C(/CCN)c2ccccc2)c2ccccc2)cc1,Active

# Tested on: MCF7
# Assay: Cytotoxicity against human MCF7 cells assessed as induction of cell death at 0.5 to 25 uM after 48 hrs by MTT assay
# Type: functional, cell-based
# Conditions: not given
row,SMILES,Activity
1,[N-]=[N+]=NCCOc1ccc(/C(=C(/CCCl)c2ccccc2)c2ccccc2)cc1,inactive
2,[N-]=[N+]=NCCOc1ccc(/C(=C(/CCN=[N+]=[N-])c2ccccc2)c2ccccc2)cc1,inactive
3,CS(=O)(=O)OCCOc1ccc(/C(=C(/CCCl)c2ccccc2)c2ccccc2)cc1,inactive
4,NCC/C(=C(\c1ccccc1)c1ccc(OCCO)cc1)c1ccccc1,Active
5,O=C(NCC/C(=C(\c1ccccc1)c1ccc(OCCO)cc1)c1ccccc1)Oc1ccccc1,Active
6,[N-]=[N+]=NCC/C(=C(\c1ccccc1)c1ccc(OCCO)cc1)c1ccccc1,Active
7,NCCOc1ccc(/C(=C(/CCN)c2ccccc2)c2ccccc2)cc1,Active

# Tested on: MCF7
# Assay: Induction of cell death in human MCF7 cells at 10 to 50 uM after 24 hrs using calcein AM and ethidium homodimer-1 by live/dead assay
# Type: functional
# Conditions: not given
row,SMILES,Activity
1,NCC/C(=C(\c1ccccc1)c1ccc(OCCO)cc1)c1ccccc1,50%
2,NCCOc1ccc(/C(=C(/CCN)c2ccccc2)c2ccccc2)cc1,Active

# Tested on: MDA-MB-231
# Assay: Induction of cell death in human MDA-MB-231 cells at 10 to 50 uM after 24 hrs using calcein AM and ethidium homodimer-1 by live/dead assay
# Type: functional, cell-based
# Conditions: not given
row,SMILES,Activity
1,NCC/C(=C(\c1ccccc1)c1ccc(OCCO)cc1)c1ccccc1,Active
2,NCCOc1ccc(/C(=C(/CCN)c2ccccc2)c2ccccc2)cc1,Active

# Tested on: MCF7
# Assay: Induction of cell death in human MCF7 cells at 10 uM after 24 hrs using calcein AM and ethidium homodimer-1 by live/dead assay
# Type: functional
# Conditions: not given
row,SMILES,Activity
1,NCCOc1ccc(/C(=C(/CCN)c2ccccc2)c2ccccc2)cc1,70%

# Tested on: MDA-MB-231
# Assay: Ratio of tamoxifen IC50 to compound IC50 for human MDA-MB-231 cells assessed as reduction in cell viability after 96 hrs by MTT assay
# Type: functional
# Conditions: not given
row,SMILES,Ratio IC50
1,NCC/C(=C(\c1ccccc1)c1ccc(OCCO)cc1)c1ccccc1,>5
2,NCCOc1ccc(/C(=C(/CCN)c2ccccc2)c2ccccc2)cc1,>5

# Tested on: MCF7
# Assay: Ratio of tamoxifen IC50 to compound IC50 for human MCF7 cells assessed as reduction in cell viability after 96 hrs by MTT assay
# Type: functional
# Conditions: not given
row,SMILES,Ratio IC50
1,NCC/C(=C(\c1ccccc1)c1ccc(OCCO)cc1)c1ccccc1,>5
2,NCCOc1ccc(/C(=C(/CCN)c2ccccc2)c2ccccc2)cc1,>5

# Tested on: MDA-MB-231
# Assay: Ratio of ospemifene IC50 to compound IC50 for human MDA-MB-231 cells assessed as reduction in cell viability after 96 hrs by MTT assay
# Type: functional
# Conditions: not given
row,SMILES,Ratio IC50
1,NCC/C(=C(\c1ccccc1)c1ccc(OCCO)cc1)c1ccccc1,5
2,NCCOc1ccc(/C(=C(/CCN)c2ccccc2)c2ccccc2)cc1,5

# Tested on: MCF7
# Assay: Ratio of ospemifene IC50 to compound IC50 for human MCF7 cells assessed as reduction in cell viability after 96 hrs by MTT assay
# Type: functional
# Conditions: not given
row,SMILES,Ratio IC50
1,NCC/C(=C(\c1ccccc1)c1ccc(OCCO)cc1)c1ccccc1,5
2,NCCOc1ccc(/C(=C(/CCN)c2ccccc2)c2ccccc2)cc1,5

# Tested on: MDA-MB-231
# Assay: Induction of cell death in human MDA-MB-231 cells at 10 uM after 24 hrs using calcein AM and ethidium homodimer-1 by live/dead assay
# Type: functional
# Conditions: not given
row,SMILES,Activity
1,NCCOc1ccc(/C(=C(/CCN)c2ccccc2)c2ccccc2)cc1,70%
